Reference: patent publication US20260048041A1, “COMPOSITION FOR REMOVING HELICOBACTER PYLORI COMPRISING ZASTAPRAZAN OR PHARMACEUTICALLY ACCEPTABLE SALT THEREOF” (JEIL PHARMACEUTICAL CO., LTD., priority 2022, published 2026)

Tests used:
[1] = test system: Helicobacter pylori 26695 (ATCC700329); experiment: Anti-H. pylori in vitro efficacy test, MIC and MBC by microdilution (CLSI); type: cell-based; details: strain 26695; unit not given in table (method uses μg/mL)
Experimental: (§1) Helicobacter pylori 26695 (ATCC700329): A strain isolated from a patient known to be associated with the development of gastric cancer. The strain is cytotoxin associated gene (CagA)-positive and vacuolating cytotoxin (VacA)-positive and has a well-known genetic background, so it is mainly used for research purposes. An antibiotic susceptibility testing was performed using the microdilution method according to the CLSI guideline. […] The bacteria were inoculated into wells containing only medium without antibiotics to prepare the positive control group, and the wells containing only medium without antibiotics or inoculated bacteria were used as the negative control group. The concentration range of the test substances, zastaprazan (JP-1366) and fexuprazan, was determined through preliminary experiments. […] The lowest concentration at which no bacterial growth was observed was determined as the MIC. […] The lowest concentration at which no bacteria growth occurred was determined as the MBC. […] All tests were performed in duplicate, and the results were determined by conducting the experiments in triplicate.

[2] = Solubility seen during MIC analysis; type: physicochemical; details: in MIC medium; suspension formed, MIC analysis difficult
From the text: Referring to Table 4 below, since the solubility of zastaprazan (JP-1366) was low, the MIC analysis was difficult (poor solubility, formation of suspension, interference in visual/absorbance analysis), so the inhibitory effect on the H. pylori strains was confirmed through the MBC index.

[3] = Drug interaction (PK) trial of JP-1366, amoxicillin and clarithromycin in healthy adult volunteers; type: in vivo, human
From the text: Test drug and administration period A. Test drug 1: […] Jeil Pharmaceutical • Dose: […] Oral B. […] Selection and classification of clinical trial subjects […]

[4] = test system: Helicobacter pylori (ATCC43504); experiment: Anti-H. pylori in vitro efficacy test, MIC and MBC by microdilution (CLSI); type: cell-based; details: strain 43504, unit not given in table (method uses μg/mL); for MIC: 3 days, microaerobic
Experimental: as §1, with “(ATCC43504): Type” for “26695 (ATCC700329): A”, “for antibiotic susceptibility testing according” for “isolated from a patient known”, “to” for “to be associated with”, “Clinical & Laboratory Standards Institute (CLSI) guidelines.” for “development of gastric cancer. The strain is cytotoxin associated gene (CagA)-positive and vacuolating cytotoxin (VacA)-positive and has a well-known genetic background, so it is mainly used for research purposes.”

[5] = test system: patients with erosive gastroesophageal reflux disease; experiment: Phase 2 clinical trial, healing of mucosal breaks and symptoms; type: in vivo, human
Experimental: H. pylori testing was performed by 13C-urea breath test (13C-UBT), gastroscopy (Campylobacter-like organism test, CLO), or tissue biopsy to confirm H. pylori positivity/negativity. The testing was performed at the screening visit (Visit 1) or the randomization visit (Visit 2), and results from the same institution within 29 days prior to the randomization visit (Visit 2) could be substituted. This clinical trial was a randomized, double-blind, active-controlled, multicenter, phase 2 clinical trial targeting patients with erosive gastroesophageal reflux disease. After the subjects gave written consent to participate in the clinical trial, a screening test was conducted. […] At this time, the subjects were stratified by grade (A, B, C, D) according to the LA classification system classified by upper gastrointestinal endoscopy. Randomly assigned subjects took the clinical trial drug once a day according to the assigned administration group for four weeks. After four weeks of administration of the clinical trial drug, the subjects visited the clinical trial institution to undergo an upper gastrointestinal endoscopy to assess whether they were healed. Healed subjects underwent a Safety Follow-Up (F/U) two weeks later, and unhealed subjects were administered the clinical trial drug for additional four weeks (a total of 8 weeks of administration) and visited the clinical trial institution to undergo an upper gastrointestinal endoscopy. […] 3.

[6] = test system: Helicobacter pylori SS1 (mouse colonizing strain); experiment: Anti-H. pylori in vitro efficacy test, MIC and MBC by microdilution (CLSI); type: cell-based
Experimental: Helicobacter pylori SS1 (mouse colonizing strain): A strain known as Sydney strain. The strain is CagA-positive and VacA-positive and has been confirmed to infect and colonize in C57BL/6 mice. The strain is used in animal testing. An antibiotic susceptibility testing was performed using the microdilution method according to the CLSI guideline. […] The bacteria were inoculated into wells containing only medium without antibiotics to prepare the positive control group, and the wells containing only medium without antibiotics or inoculated bacteria were used as the negative control group. The concentration range of the test substances, zastaprazan (JP-1366) and fexuprazan, was determined through preliminary experiments. […] The lowest concentration at which no bacterial growth was observed was determined as the MIC. […] The lowest concentration at which no bacteria growth occurred was determined as the MBC. […] All tests were performed in duplicate, and the results were determined by conducting the experiments in triplicate.

[7] = test system: Helicobacter pylori SS1 (mouse colonizing strain); experiment: Efficacy of JP-1366 to enhance antibacterial activity of clarithromycin, MIC and MBC by microdilution; type: cell-based; details: H. pylori SS1
Experimental: Helicobacter pylori SS1 (mouse colonizing strain): Known as Sydney strain, the strain is […] and VacA-positive, and has been confirmed to colonize mice C57BL/6 and is used in animal experiments.
An antibiotic susceptibility test was performed by the microdilution method according to CLSI guideline.
The antibiotic susceptibility test was performed using MH broth (7% horse serum, 0.4% IsoVitalex), and the susceptibility test medium for zastaprazan (JP-1366) was prepared at this time. […] Using the medium prepared in this way, clarithromycin was serially diluted 2-fold and in 16 steps, with a maximum concentration of 16 μg/mL. Wells containing only the medium without antibiotics were used as a negative control group, and wells inoculated only with the bacteria in the medium without antibiotics were used as a positive control group. H. pylori stored in a deep freezer (−70° C. or lower) was inoculated onto BHI agar (w/7% laked horse blood, 0.4% IsoVitalex) and cultured for three days at 37° C. under microaerophilic conditions (Oxoid CampyGene gas pk) and then subcultured onto a fresh medium. The cultured bacteria were harvested, suspended in PBS, and inoculated into each well at a concentration of 5×10^5 CFU/mL. Thereafter, the bacteria were cultured for three days at 37° C. under microaerophilic conditions of 5% 02, 10% CO2, and 85% N2 gas. The lowest concentration of the sample at which no bacterial growth was observed was determined as the MIC. […] The lowest concentration at which no bacterial growth was observed was determined as the minimum bactericidal concentration(MBC).

[8] = JP-1366, three-drug regimen vs JP-1366 alone
[9] = strain SS1, unit not given in table (method uses μg/mL)
[10] = MH medium + JP1366 at ½ MIC concentration, unit not given
[11] = MH medium, unit not given in table (method uses μg/mL)

Row | Structure (SMILES) | MBC [1] | MBC [4] | MBC [6, 9] | MIC [1] | MIC [4] | MIC [6, 9] | also measured
1 | Cc1cccc(C)c1CNc1cc(C(=O)N2CCC2)cn2c(C)c(C)nc12.O=C(O)CC(O)(CC(=O)O)C(=O)O [JP-1366, azetidin-1-yl{8-[(2,6-dimethylbenzyl)amino]-2,3-dimethylimidazo[1,2-a]pyridin-6-yl}methanone citrate salt] | 16~32 | 8~32 | 16~32 | – | – | – | solubility [2]: low; AUCT higher when T3 was administered compared to T1 [3, 8]: approximately 2.4 times; AUCτ, Geometric LS Mean Ratio (T3/T1), Point Estimate [3, 8]: 2.4422; Cmax, ss higher when T3 was administered compared to T1 [3, 8]: approximately 1.8 times; Cmax, ss, Geometric LS Mean Ratio (T3/T1), Point Estimate [3, 8]: 1.7766; Cmax ([3]; human, in vivo, JP-1366 after T1: JP-1366 20 mg 1 capsule alone, twice daily, 5 days, oral, N = 24, read-out: Cmax, ss, Geometric LS Mean): 156 ng/mL; increase of area under the concentration-time curve (AUCT) compared to single administration ([3]; zastaprazan combined with amoxicillin and clarithromycin): more than twofold; healing effect compared with Nexium 40 mg ([5]; H. pylori-negative group, 20 mg): the same effect as Nexium 40 mg; symptoms (heartburn, acid reflux, heartburn/acid reflux) within 24 hours and for seven days after administration ([5]; JP-1366 5 mg two capsules (10 mg) once a day): all symptoms tended to be ameliorated; symptoms (heartburn, acid reflux, heartburn/acid reflux) within 24 hours and for seven days after administration ([5]; JP-1366 20 mg one capsule once a day): all symptoms tended to be ameliorated; MBC ([6]; Helicobacter pylori, stated in Example 5 method, H. pylori SS1, read-out: maximum MBC value): 32 µg/mL
2 | COc1ccc2[nH]c([S+]([O-])Cc3ncc(C)c(OC)c3C)nc2c1 (stereo not drawn) [Omeprazole] | 64~128 | 64 | 64~128 | 32~64 | 32 | 32~64 | –
3 | CNCc1cn(S(=O)(=O)c2cccc(F)c2)c(-c2ccc(F)cc2F)c1OC [Fexuprazan] | 64~128 | 64~128 | 64~128 | 64 | 64 | 64 | –
4 | CC1(C)S[C@@H]2[C@H](NC(=O)[C@H](N)c3ccc(O)cc3)C(=O)N2[C@H]1C(=O)O [Amoxicillin] | 0.032 | 0.032 | 0.25 | 0.016~0.032 | 0.016~0.032 | – | –
5 | CC[C@H]1OC(=O)[C@H](C)[C@@H](O[C@H]2C[C@@](C)(OC)[C@@H](O)[C@H](C)O2)[C@H](C)[C@@H](O[C@@H]2O[C@H](C)C[C@H](N(C)C)[C@H]2O)[C@](C)(OC)C[C@@H](C)C(=O)[C@H](C)[C@@H](O)[C@]1(C)O [Clarithromycin] | 0.125 | 0.063 | 0.125 | 0.063~0.125 | 0.032 | 0.032 | MBC [7, 10]: 0.032 to 0.063; MIC [7, 10]: 0.032 to 0.063; MBC [7, 11]: 0.063 to 0.125; MIC [7, 11]: 0.032 to 0.063; lowering of MBC in medium containing JP1366 ([7]; medium with zastaprazan (JP1366) at ½ MIC concentration vs MH medium): about ½
